In ChEMBL document CHEMBL3102727, “Conformationally constrained ortho-anilino diaryl ureas: discovery of 1-(2-(1'-neopentylspiro[indoline-3,4'-piperidine]-1-yl)phenyl)-3-(4-(trifluoromethoxy)phenyl)urea, a potent, selective, and bioavailable P2Y1 antagonist” (J Med Chem, 2013):
Converted amounts (≈) assume the structure as drawn. The source made the active and inactive calls. The rule behind the calls is not given here.

Legend:
[1] = Aqueous solubility of the of partial crystalline form of compound in phosphate buffer at pH 6.5; format: physicochemical
[2] = Metabolic stability in rat liver microsomes assessed as compound remaining after 10 mins; format: ADME; conditions: read-out: Stability
[3] = Metabolic stability in human liver microsomes assessed as compound remaining after 10 mins; format: ADME; conditions: read-out: Stability
[4] = Partition coefficient, log P of the compound at pH 7 by reversed-phase HPLC method; format: physicochemical; conditions: octanol/water
P2Y purinoceptor 1 [5] = biological target: T1, P2Y purinoceptor 1 (Homo sapiens, UniProt P47900); test: Displacement of [33P]-2MeS-ADP from human P2Y1 receptor expressed in HEK293 cells after 1 hr by scintillation counting analysis; format: cell-based
T1 sequence (P47900 whole entry): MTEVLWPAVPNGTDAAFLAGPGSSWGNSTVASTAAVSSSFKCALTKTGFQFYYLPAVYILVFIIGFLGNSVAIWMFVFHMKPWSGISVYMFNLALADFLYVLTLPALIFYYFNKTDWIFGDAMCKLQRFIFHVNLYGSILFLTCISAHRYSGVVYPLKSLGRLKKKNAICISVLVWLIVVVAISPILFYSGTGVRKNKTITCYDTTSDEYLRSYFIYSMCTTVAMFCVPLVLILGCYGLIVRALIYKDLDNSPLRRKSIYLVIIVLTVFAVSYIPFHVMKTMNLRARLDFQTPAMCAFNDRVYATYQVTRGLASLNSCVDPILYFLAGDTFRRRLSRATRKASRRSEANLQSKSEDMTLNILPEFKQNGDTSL

[6] = Aqueous solubility of the amorphous form of compound in phosphate buffer at pH 6.5; format: physicochemical
P2Y purinoceptor 1 [7] = biological target: T1, P2Y purinoceptor 1; test: Antagonist activity at P2Y1 receptor in washed human platelets assessed as 1 uM 2-methylthio-ADP-induced calcium flux by FLIPR assay; format: functional
Rattus norvegicus [8] = test: Induction of mesenteric bleeding time in iv dosed Sprague-Dawley rat measured over 10 mins; format: organism-based; conditions: in vivo
Rattus norvegicus [9] = test: Induction of mesenteric bleeding time in Sprague-Dawley rat at 0.6 mg/kg and 2.25 mg/kg/hr, iv measured over 10 mins relative to vehicle-treated control; format: organism-based; conditions: in vivo
Rattus norvegicus [10] = test: Induction of mesenteric bleeding time in Sprague-Dawley rat at 0.2 mg/kg and 0.75 mg/kg/hr, iv measured over 10 mins relative to vehicle-treated control; format: organism-based; conditions: in vivo
Rattus norvegicus [11] = test: Antithrombotic activity in iv dosed FeCl2-induced Sprague-Dawley rat carotid artery thrombosis model assessed as increase in integrated blood flow measured over 60 mins; format: functional, organism-based
Rattus norvegicus [12] = test: Antithrombotic activity in iv dosed FeCl2-induced Sprague-Dawley rat carotid artery thrombosis model assessed as inhibition of arterial thrombus formation after 60 mins; format: functional, organism-based
Rattus norvegicus [13] = test: Antithrombotic activity in iv dosed FeCl2-induced Sprague-Dawley rat vena cava thrombosis model assessed as reduction of thrombus weight after 60 mins; format: functional, organism-based
Rattus norvegicus [14] = test: Antithrombotic activity in FeCl2-induced Sprague-Dawley rat vena cava thrombosis model assessed as reduction of thrombus weight at 0.6 mg/kg and 2.25 mg/kg/hr, iv after 60 mins relative to vehicle-treated control; format: functional; design: scale not given: the % may be the effect or the level left
Rattus norvegicus [15] = test: Antithrombotic activity in FeCl2-induced Sprague-Dawley rat vena cava thrombosis model assessed as reduction of thrombus weight at 0.2 mg/kg and 0.75 mg/kg/hr, iv after 60 mins relative to vehicle-treated control; format: functional; design: scale not given: the % may be the effect or the level left
Rattus norvegicus [16] = test: Ex vivo antiplatelet activity in Sprague-Dawley rat assessed as inhibition of […] uM ADP-induced platelet aggregation at 10 mg/kg, po after 60 mins relative to vehicle-treated control; format: functional; conditions: 1 h
Rattus norvegicus [17] = test: Ex vivo antiplatelet activity in Sprague-Dawley rat assessed as inhibition of […] uM ADP-induced platelet aggregation at 3 mg/kg, po after 60 mins relative to vehicle-treated control; format: functional; conditions: 1 h
Rattus norvegicus [18] = test: Ex vivo antiplatelet activity in Sprague-Dawley rat assessed as inhibition of […] uM ADP-induced platelet aggregation at 0.2 mg/kg and 0.75 mg/kg/hr, iv after 60 mins relative to vehicle-treated control; format: functional
Rattus norvegicus [19] = test: Ex vivo antiplatelet activity in Sprague-Dawley rat assessed as inhibition of […] uM ADP-induced platelet aggregation at 0.6 mg/kg and 2.25 mg/kg/hr, iv after 60 mins relative to vehicle-treated control; format: functional
Rattus norvegicus [20] = test: Antithrombotic activity in FeCl2-induced Sprague-Dawley rat carotid artery thrombosis model assessed as integrated blood flow at 10 mg/kg, po after 60 mins relative to vehicle-treated control; format: functional
Rattus norvegicus [21] = test: Antithrombotic activity in FeCl2-induced Sprague-Dawley rat carotid artery thrombosis model assessed as integrated blood flow at 0.6 mg/kg and 2.25 mg/kg/hr, iv after 60 mins relative to vehicle-treated control; format: functional
Rattus norvegicus [22] = test: Antithrombotic activity in FeCl2-induced Sprague-Dawley rat carotid artery thrombosis model assessed as prevention of vascular occlusion at 10 mg/kg, po after 60 mins; format: functional, organism-based; design: dose 10 mg/kg
Rattus norvegicus [23] = test: Antithrombotic activity in FeCl2-induced Sprague-Dawley rat carotid artery thrombosis model assessed as prevention of vascular occlusion at 0.6 mg/kg and 2.25 mg/kg/hr, iv after 60 mins; format: functional, organism-based
Rattus norvegicus [24] = test: Antithrombotic activity in FeCl2-induced Sprague-Dawley rat carotid artery thrombosis model assessed as reduction of thrombus weight at 3 mg/kg, po after 60 mins relative to vehicle-treated control; format: functional; design: scale not given: the % may be the effect or the level left
Rattus norvegicus [25] = test: Antithrombotic activity in FeCl2-induced Sprague-Dawley rat carotid artery thrombosis model assessed as reduction of thrombus weight at 0.2 mg/kg and 0.75 mg/kg/hr, iv after 60 mins relative to vehicle-treated control; format: functional; design: scale not given: the % may be the effect or the level left
Rattus norvegicus [26] = test: Antithrombotic activity in FeCl2-induced Sprague-Dawley rat carotid artery thrombosis model assessed as reduction of thrombus weight at 10 mg/kg, po after 60 mins relative to vehicle-treated control; format: functional; design: scale not given: the % may be the effect or the level left
Rattus norvegicus [27] = test: Antithrombotic activity in FeCl2-induced Sprague-Dawley rat carotid artery thrombosis model assessed as reduction of thrombus weight at 0.6 mg/kg and 2.25 mg/kg/hr, iv after 60 mins relative to vehicle-treated control; format: functional; design: scale not given: the % may be the effect or the level left
Rattus norvegicus [28] = test: Antithrombotic activity in po dosed FeCl2-induced Sprague-Dawley rat carotid artery thrombosis model assessed as increase in integrated blood flow measured over 60 mins; format: functional, organism-based
Rattus norvegicus [29] = test: Antithrombotic activity in po dosed FeCl2-induced Sprague-Dawley rat carotid artery thrombosis model assessed as inhibition of arterial thrombus formation after 60 mins; format: functional, organism-based
Rattus norvegicus [30] = species: Rattus norvegicus; test: Inhibition of rat sodium channel site-2 at 10 uM relative to control
L-type calcium channel = L-type calcium channel (Rattus norvegicus, UniProt P22002+P27732+Q02485); test: Inhibition of rat L-type calcium channel at 10 uM relative to control
[31] = biological target: Opioid receptors; mu/kappa/delta (Homo sapiens, UniProt P41145+P41143+P35372); test: Inhibition of opioid receptor (unknown origin)
HEK293 = test: Selectivity ratio of IC50 for P2X1 receptor in HEK293 cells to IC50 for P2Y1 receptor in washed human platelets; format: cell-based
P2X purinoceptor 1 = biological target: T2, P2X purinoceptor 1 (Homo sapiens, UniProt P51575); test: Antagonist activity at P2X1 receptor in HEK293 cells assessed as alpha, beta-methylene ATP-induced calcium flux by FLIPR assay; format: cell-based
T2 sequence (P51575 whole entry): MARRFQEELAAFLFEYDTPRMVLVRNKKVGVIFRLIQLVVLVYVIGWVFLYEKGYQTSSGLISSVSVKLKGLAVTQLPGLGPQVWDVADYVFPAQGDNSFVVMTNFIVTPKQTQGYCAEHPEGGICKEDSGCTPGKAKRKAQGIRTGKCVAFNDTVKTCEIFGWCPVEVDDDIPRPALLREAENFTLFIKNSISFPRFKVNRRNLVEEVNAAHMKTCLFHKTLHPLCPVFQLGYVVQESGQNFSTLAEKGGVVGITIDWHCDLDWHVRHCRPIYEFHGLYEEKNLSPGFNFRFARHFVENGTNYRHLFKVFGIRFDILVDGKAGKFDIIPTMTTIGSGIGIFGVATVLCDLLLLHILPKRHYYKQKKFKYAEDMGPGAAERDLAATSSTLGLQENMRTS

P2Y purinoceptor 2 = P2Y purinoceptor 2 (Homo sapiens, UniProt P41231); test: Antagonist activity at P2Y2 receptor in human HeLa cells assessed as intracellular calcium mobilization after 10 mins by Fluo-4 AM staining-based FLIPR assay; format: functional, cell-based
P2Y purinoceptor 2, sequence (P41231 whole entry): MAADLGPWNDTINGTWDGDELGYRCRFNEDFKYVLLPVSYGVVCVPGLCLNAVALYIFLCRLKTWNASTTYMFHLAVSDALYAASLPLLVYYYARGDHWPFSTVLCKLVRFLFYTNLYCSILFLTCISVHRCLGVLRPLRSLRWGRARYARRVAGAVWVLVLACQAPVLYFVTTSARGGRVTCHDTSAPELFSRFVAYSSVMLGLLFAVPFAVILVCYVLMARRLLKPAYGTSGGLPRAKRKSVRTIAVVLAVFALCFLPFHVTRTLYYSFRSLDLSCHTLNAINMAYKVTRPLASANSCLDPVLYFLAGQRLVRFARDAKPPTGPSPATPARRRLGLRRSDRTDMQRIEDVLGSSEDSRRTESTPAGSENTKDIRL

P2Y purinoceptor 12 = P2Y purinoceptor 12 (Homo sapiens, UniProt Q9H244); test: Displacement of [33P]-2MeS-ADP from P2Y12 receptor (unknown origin) transfected in HEK293 cells after 1 hr by scintillation counting analysis; format: cell-based
P2Y purinoceptor 12, sequence (Q9H244 whole entry): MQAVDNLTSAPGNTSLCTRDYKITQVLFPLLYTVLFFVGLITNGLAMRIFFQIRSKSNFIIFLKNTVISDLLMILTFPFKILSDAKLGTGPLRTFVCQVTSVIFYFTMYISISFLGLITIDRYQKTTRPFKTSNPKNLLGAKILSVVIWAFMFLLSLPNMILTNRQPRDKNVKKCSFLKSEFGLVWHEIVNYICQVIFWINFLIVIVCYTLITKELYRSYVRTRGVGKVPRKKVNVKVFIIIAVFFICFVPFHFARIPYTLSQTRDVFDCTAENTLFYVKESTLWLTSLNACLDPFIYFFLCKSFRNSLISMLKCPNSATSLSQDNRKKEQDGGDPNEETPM

[32] = Fraction unbound in dog; format: ADME, organism-based, Canis lupus familiaris; conditions: in vivo
[33] = Fraction unbound in rabbit; format: ADME, organism-based, Oryctolagus cuniculus; conditions: in vivo
[34] = Fraction unbound in mouse; format: ADME, organism-based; conditions: in vivo
[35] = Fraction unbound in rat; format: ADME, organism-based; conditions: in vivo
[36] = Oral bioavailability in dog at 0.2 mg/kg; format: ADME, organism-based, Canis lupus familiaris; conditions: in vivo
[37] = Fraction unbound in human; format: ADME, organism-based; conditions: in vivo
[38] = Half life in dog at 0.2 mg/kg, po; format: ADME, organism-based, Canis lupus familiaris; design: dose 0.2 mg/kg, route oral; conditions: in vivo
[39] = Clearance in dog at 0.2 mg/kg, po and 0.1 mg/kg, iv; format: ADME, organism-based, Canis lupus familiaris; conditions: in vivo
[40] = Volume of distribution at steady state in dog at 0.2 mg/kg, po and 0.1 mg/kg, iv; format: ADME, organism-based, Canis lupus familiaris; conditions: in vivo, read-out: Vdss
[41] = Total AUC in rat at 0.5 mg/kg, po; format: ADME, organism-based; design: time AUCmax, dose 0.5 mg/kg, route oral; conditions: in vivo
[42] = Oral bioavailability in rat at 0.5 mg/kg; format: ADME, organism-based; conditions: in vivo
[43] = Half life in rat at 0.5 mg/kg, iv administered as bolus dose and po; format: ADME, organism-based; design: dose 0.5 mg/kg, route oral; conditions: in vivo
[44] = Volume of distribution at steady state in rat at 0.5 mg/kg, iv administered as bolus dose; format: ADME, organism-based; design: dose 0.5 mg/kg, route intravenous; conditions: in vivo, read-out: Vdss
[45] = Clearance in rat at 0.5 mg/kg, iv administered as bolus dose; format: ADME, organism-based; design: dose 0.5 mg/kg, route intravenous; conditions: in vivo
[46] = Aqueous solubility of the crystalline form of compound in phosphate buffer at pH 6.5; format: physicochemical
P2Y purinoceptor 1 [47] = biological target: T1, P2Y purinoceptor 1; test: Antagonist activity at P2Y1 receptor in platelet-enriched human plasma assessed as 2.5 uM ADP-induced platelet aggregation preincubated for 1 min followed by ADP induction measured at 5 mins by aggregometric analysis

CC(C)CN1CCC2(CC1)CN(c1ccccc1NC(=O)Nc1ccc(OC(F)(F)F)cc1)c1ccccc12
solubility [1]: 7 µg/mL (≈ 13 µM)
remaining at 10 min [2]: 84%
remaining at 10 min [3]: 79%
logP [4]: 5.5
Ki (P2Y purinoceptor 1 [5]): 20.7 nM

CC(C)(C)CN1CCC2(CC1)CCN(c1ccccc1NC(=O)Nc1ccc(OC(F)(F)F)cc1)c1ccccc12
solubility [6]: 16 µg/mL (≈ 28.2 µM)
remaining at 10 min [2]: 87%
remaining at 10 min [3]: 90%
logP [4]: > 6.2
IC50 (P2Y purinoceptor 1 [7]): 9.9 nM
Ki (P2Y purinoceptor 1 [5]): 4.6 nM

CC(C)(C)CN1CCC2(CC1)CN(c1ccccc1NC(=O)Nc1ccc(OC(F)(F)F)cc1)c1ccccc12
Activity (Rattus norvegicus [8]): Dose-dependent effect
fold change (FC) (Rattus norvegicus [9]): 2.3
fold change (FC) (Rattus norvegicus [10]): 2.7
Activity (Rattus norvegicus [11]): Dose-dependent effect
inhibition (Rattus norvegicus [12]): Dose-dependent effect
Activity (Rattus norvegicus [13]): Dose-dependent effect
Activity (Rattus norvegicus [14]): -54%
Activity (Rattus norvegicus [15]): -26%
inhibition in vivo at 10 mg/kg (Rattus norvegicus [16]): -64%
inhibition in vivo at 3 mg/kg (Rattus norvegicus [17]): -48%
inhibition (INH) (Rattus norvegicus [18]): -30%
inhibition (INH) (Rattus norvegicus [19]): -85%
Activity (Rattus norvegicus [20]): >95%
Activity (Rattus norvegicus [21]): >95%
Activity (Rattus norvegicus [22]): Active
Activity (Rattus norvegicus [23]): Active
Activity (Rattus norvegicus [24]): -45%
Activity (Rattus norvegicus [25]): -41%
Activity (Rattus norvegicus [26]): 64%
Activity (Rattus norvegicus [27]): 66%
Activity (Rattus norvegicus [28]): Dose-dependent effect
inhibition (Rattus norvegicus [29]): Dose-dependent effect
inhibition (Rattus norvegicus [30]): 88%
inhibition at 10 µM (L-type calcium channel): 78%
IC50 [31]: 2700 nM
Ratio IC50 (HEK293): > 600
IC50 (P2X purinoceptor 1): 1600 nM
IC50 (P2Y purinoceptor 2): > 10000 nM
IC50 (P2Y purinoceptor 12): > 20000 nM
Fu [32]: 0.2%
Fu [33]: 0.1%
Fu [34]: 0.2%
Fu [35]: < 0.1%
bioavailability [36]: 55%
Fu [37]: < 0.1%
half-life [38]: 9.7 h
clearance [39]: 5.3 mL/min/kg
Vd [40]: 2.8 L/kg
AUC [41]: 0.587 µM·h
bioavailability [42]: 32%
half-life [43]: 7.5 h
Vd [44]: 2.8 L/kg
clearance [45]: 9.1 mL/min/kg
solubility [46]: 4 µg/mL (≈ 7.24 µM)
remaining at 10 min [2]: 87%
remaining at 10 min [3]: 89%
logP [4]: > 6.2
IC50 (P2Y purinoceptor 1 [7]): 2.5 nM
Ki (P2Y purinoceptor 1 [5]): 4.3 nM

O=C(Nc1ccc(OC(F)(F)F)cc1)Nc1ccccc1-c1cc2ccccc2[nH]1
Activity (P2Y purinoceptor 1 [47]): inactive
IC50 (P2Y purinoceptor 1 [5]): 75 nM
